{"source": "patent US5543521A", "about": "“Compounds that modulate endothelin activity” (Immunopharmaceutics, Inc., priority 1994, dated 1996)", "key": {"human ETB receptor": {"test_system": "human ETB receptor", "test": "Endothelin Inhibition Binding Test #2: membranes of COS7 cells expressing the human ETB receptor", "conditions": "125I-ET-1, COS7 membranes expressing human ETB receptor", "description": "COS7 cells were transfected with DNA encoding the ETB receptor, The resulting cells, which express the human ETB receptor, were grown to confluence in T-150 flasks. Membrane was prepared as described above. The binding assay was performed as described above using the membrane preparation diluted with binding buffer to a concentration of 1 μg/100 μl.\nThe COS7 cells, described above, that had been transfected with DNA encoding the ETB receptor and express the human ETB receptor were grown to confluence in T-175 flasks. Cells from multiple flasks were collected by scraping, pooled and centrifuged for 10 min. at 190×g. The cells were resuspended in phosphate buffered saline (PBS) containing 10 mM EDTA using a Tenbroeck homogenizer. The suspension was centrifuged at 4° C. at 57,800×g for 15 min, the pellet was resuspended in 5 ml of buffer A (5mM HEPES buffer, pH 7.4 containing aprotinin (100 KIU/ml)) and then frozen and thawed once. 5 ml of Buffer B (5 mM HEPES Buffer, pH 7.4 containing 10 mM MnCl2 and 0.001% deoxyribonuclease Type 1) was added, the suspension mixed by inversion and then incubated at 37° C. for 30 minutes. The mixture was centrifuged at 57,800×g as described above, the pellet washed twice with buffer A and then resuspended in buffer C (30 mM HEPES buffer, pH 7.4 containing aprotinin (100 KIU/ml) to give a final protein concentration of 2 mg/ml. […]"}, "[1]": {"biological_target": "T1, endothelin receptors (TE 671 cells) (Homo sapiens, UniProt P25101)", "T1 construct": "host or cells: TE 671 cells (membrane preparation)", "T1 sequence (P25101 21-427)": "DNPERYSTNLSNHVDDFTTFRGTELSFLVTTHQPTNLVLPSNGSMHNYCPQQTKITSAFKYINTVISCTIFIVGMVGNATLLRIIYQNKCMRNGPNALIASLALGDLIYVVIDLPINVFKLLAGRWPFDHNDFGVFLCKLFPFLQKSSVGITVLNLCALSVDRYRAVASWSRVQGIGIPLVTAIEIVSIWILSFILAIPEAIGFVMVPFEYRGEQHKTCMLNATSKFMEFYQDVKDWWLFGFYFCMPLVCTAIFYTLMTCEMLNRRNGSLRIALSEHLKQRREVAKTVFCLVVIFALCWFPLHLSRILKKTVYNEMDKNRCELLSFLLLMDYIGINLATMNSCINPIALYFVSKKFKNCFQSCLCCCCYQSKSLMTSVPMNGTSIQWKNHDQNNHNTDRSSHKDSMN", "test": "Endothelin Binding Inhibition Binding Test #1: inhibition of 125I-ET-1 binding to TE 671 cell membranes", "conditions": "125I-ET-1, TE 671 membranes, 4° C. for 16 hours, test compound 1 nM to 100 μM, triplicate", "description": "TE 671 cells (ATCC Accession No. HTB 139) were grown to confluence in T-175 flasks. Cells from multiple flasks were collected by scraping, pooled and centrifuged for 10 min at 190×g. The cells were resuspended in phosphate buffered saline (PBS) containing 10 mM EDTA using a Tenbroeck homogenizer. The suspension was centrifuged at 4° C. at 57,800×g for 15 min, the pellet was resuspended in 5 ml of buffer A (5 mM HEPES buffer, pH 7.4 containing aprotinin (100 KIU/ml)) and then frozen and thawed once. 5 ml of Buffer B (5 mM HEPES Buffer, pH 7.4 containing 10 mM MnCI2 and 0.001% deoxyribonuclease Type 1) was added, the suspension mixed by inversion and then incubated at 37° C. for 30 minutes. The mixture was centrifuged at 57,800×g as described above, the pellet washed twice with buffer A and then resuspended in buffer C (30 mM HEPES buffer, pH 7.4 containing aprotinin (100 KIU/ml) to give a final protein concentration of 2 mg/ml and stored at -70° C. until use.\nThe membrane suspension was diluted with binding buffer (30 mM HEPES buffer, pH 7.4 containing 150 mM NaCl, 5 mM MgCl2, 0.5% Bacitracin, 0.1% BSA) to a concentration of 6 μg/100 μl. […] The supernatant, containing unbound radioactivity, was decanted and the pellet counted on a Genesys multiwell gamma counter. The degree of inhibition of binding (D) was calculated according to the following equation: [formula] […]"}, "[2]": {"test_system": "cardiovascular receptors (cultured aortic smooth muscle cells)", "conditions": "read-out: IC50, inhibition of 125 endothelin-1 binding; cited from earlier work"}, "[3]": {"biological_target": "cardiovascular receptors (ventricle membranes)", "conditions": "read-out: IC50, inhibition of 125 endothelin-1 binding; cited from earlier work"}, "[4]": {"biological_target": "cardiovascular receptors (aortic smooth muscle membrane)", "conditions": "read-out: IC50, inhibition of 125 endothelin-1 binding; cited from earlier work"}, "endothelinB receptor": {"test_system": "endothelinB receptor", "conditions": "endothelinB receptor-rich tissues; cited from earlier work"}, "endothelin-1": {"test_system": "endothelin-1", "conditions": "cited from earlier work"}, "[5]": {"test_system": "ETB receptors (non-cardiovascular tissues)", "conditions": "kidney, adrenal gland, cerebellum; cited from earlier work"}, "vasoconstriction": {"test_system": "vasoconstriction", "conditions": "cited from earlier work"}, "[6]": {"test_system": "porcine pulmonary arteries", "conditions": "cited from earlier work"}, "[7]": {"test_system": "ETB receptors (cerebral tissue)", "conditions": "cited from earlier work"}, "isolated vascular strips": {"test_system": "isolated vascular strips", "conditions": "read-out: EC50, contractile agent; cited from earlier work"}, "[8]": {"test_system": "ETA receptors (cardiovascular tissues)", "conditions": "cited from earlier work"}}, "note": "Square brackets hold non-standard residues; d marks the D form. Ends that are not written are not given here. Peptide text beside a SMILES is read from it. d(aIle) = CC[C@H](C)[C@@H](N)C(=O)O"}
{"compound": "O=C(O)C1CCC2C(=O)NC(Cc3c[nH]c4ccccc34)C(=O)N12", "note": "(stereo not shown) [3-(3-indolylmethyl)-1,4-diaza-2,5-dioxobicyclo[4.3.0]nonane-9-carboxylic acid]", "values": [{"measurement": "activity in the second binding inhibition assay", "setting": "human ETB receptor", "result": "no detectable activity"}, {"measurement": "IC50", "setting": "[1]", "result": 22500, "unit": "nM"}]}
{"compound": "CC[C@H](C)[C@H]1NC(=O)[C@H](C)NC(=O)[C@@H](CCC(=O)O)NC(=O)[C@@H](Cc2c[nH]c3ccccc23)NC(=O)[C@H](CC(C)C)NC1=O", "note": "[BE-18257B, c(D-Glu-L-Ala-allo-D-Ile-L-Leu-D-Trp)] (cyclo(A[d(aIle)]L[dW][dE]))", "values": [{"measurement": "IC50", "setting": "[2]", "result": 500, "unit": "nM"}, {"measurement": "IC50", "setting": "[3]", "result": 800, "unit": "nM"}, {"measurement": "IC50", "setting": "[4]", "result": 1400, "unit": "nM"}, {"measurement": "concentration up to which it fails to inhibit binding", "setting": "endothelinB receptor", "result": "> 100", "unit": "µM"}]}
{"compound": "CC(C)C[C@@H]1NC(=O)[C@@H](C(C)C)NC(=O)[C@@H]2CCCN2C(=O)[C@@H](CC(=O)O)NC(=O)[C@@H](Cc2c[nH]c3ccccc23)NC1=O", "note": "[BQ-123, c(D-Asp-Pro-D-Val-Leu-D-Trp)] (cyclo(L[dW][dD]P[dV]))", "values": [{"measurement": "activity as endothelin-1 antagonists", "setting": "endothelin-1", "result": "exhibit activity as endothelin-1 antagonists"}]}
{"compound": "(Thr^2, Phe^4, Thr^5, Tyr^6, Lys^7, Tyr^14) endothelin-1 [endothelin-3]", "values": [{"measurement": "inhibition of 125 endothelin-1 binding", "setting": "[5]", "result": "inhibited to the same extent by endothelin-1 and endothelin-3"}, {"measurement": "vasoconstriction potency order", "setting": "vasoconstriction", "result": "endothelin-2>endothelinol>endothelin-3"}]}
{"compound": "(Trp^6,Leu^7) endothelin-1 (CSCSSWLDKECVYFCHLDIIW; ends and bridges not checked; cysteine pairing not given here; UniProt P20800 49-69, looked up) [endothelin-2, endothelin isopeptide]", "values": [{"measurement": "vasoconstriction potency order", "setting": "vasoconstriction", "result": "endothelin-2>endothelinol>endothelin-3"}]}
{"compound": "[Ala^1,3,11,15 ]endothelin-1: endothelin-1 analog in which the four cys residues are replaced with Ala (ASASSLMDKEAVYFAHLDIIW; Endothelin-1; UniProt P05305 53-73, looked up, variant C1A C3A C11A C15A)", "values": [{"measurement": "relaxation of pre-contracted arteries", "setting": "[6]", "result": "dose-dependent relaxation of pre-contracted porcine pulmonary arteries"}, {"measurement": "inhibition of 125 ET-1 binding", "setting": "[7]", "result": "inhibits ^125 ET-1 binding to cerebral tissue"}]}
{"compound": "endothelin-1: potent twenty-one amino acid peptide vasoconstrictor", "values": [{"measurement": "inhibition of 125 endothelin-1 binding", "setting": "[5]", "result": "inhibited to the same extent by endothelin-1 and endothelin-3"}, {"measurement": "vasoconstriction potency order", "setting": "vasoconstriction", "result": "endothelin-2>endothelinol>endothelin-3"}, {"measurement": "EC50", "setting": "isolated vascular strips", "result": 0.4, "unit": "nM"}, {"measurement": "potency of inhibition of 125 endothelin-1 binding relative to endothelin-3", "setting": "[8]", "result": "40-700"}]}
